Our source for the IC50 values is paper PMC11280325, “Design, Synthesis, and Characterization of Novel Thiazolidine-2,4-Dione-Acridine Hybrids as Antitumor Agents” (Molecules, 2024).

For one assay, the system named is HCT116. Nature of the assay: MTT assay, HCT116. Type of assay: cell-based, human. The settings on record: colorectal adenocarcinoma, 48 h incubation. The protocol:
(§1) The human cancer cell lines HeLa (cervical adenocarcinoma), HCT116 (colorectal adenocarcinoma), A2780 (human ovarian adenocarcinoma), A2780cis (human ovarian adenocarcinoma cisplatin-resistant), Jurkat (acute T-lymphoblastic leukemia), and Hep G2 (hepatocellular carcinoma) were cultured in an RPMI 1640 growth medium (Biosera, Kansas City, MO, USA). The cancer cell lines MDA-MB-231 (triple-negative breast adenocarcinoma), A2058 (human melanoma), U87 (human glioblastoma), PATU 8902 (pancreas adenocarcinoma), and A549 (human lung adenocarcinoma) were cultured in a DMEM medium (Biosera, Kansas City, MO, USA). The media were supplemented with 10% fetal bovine serum (FBS) (Invitrogen, Carlsbad, CA, USA) and 1× HyClone™ Antibiotic/Antimycotic Solution (GE Healthcare, Piscataway, NJ, USA).
(§2) To evaluate the IC50 (half-maximal inhibitory concentration) and confirm the antiproliferative activity of the tested substances, we employed the colorimetric MTT assay (3-(4,5-dimethylthiazol-2-yl)-2,5-diphenyltetrazolium bromide) (Sigma-Aldrich Chemie, Steinheim, Germany). The cell lines were seeded in 96-well plates at a density of 5 × 10^3 to 10 × 10^3 cells per well. After 24 h, the tested substances, dissolved in the cultivation medium, were added to the cells at final concentrations of 5, 10, 20, and 50 µmol/L. The cells were then incubated for 48 h under standard cultivation conditions. Following the incubation period, MTT was added to each well. The MTT was metabolized by the cells into insoluble formazan crystals, which were subsequently dissolved by adding 100 µL of 10% SDS. After another 24 h, the absorbance was measured at a wavelength of 540 nm using the automated Cytation™ 3 Cell Imaging Multi-Mode Reader (Biotek, Winooski, VT, USA). The experiments were performed in at least three independent repetitions. IC50 values were calculated using a nonlinear regression method.
For orientation: Tetrazolium assays rely on reduction of a dye to a coloured formazan, in cell work by metabolically active cells.

Another assay concerns MCF-10A. The assay can be described thus: MTT assay, MCF-10A non-cancerous cells. Type of assay: cell-based, human. The settings on record: non-cancerous epithelial breast cells, 48 h incubation. Here is the method: (§3) The non-cancerous cell line MCF-10A (human epithelial breast cells) was cultured in a DMEM F12 medium supplemented with 10% FBS (Invitrogen, Carlsbad, CA, USA), 1× HyClone™ Antibiotic/Antimycotic Solution (GE Healthcare, Piscataway, NJ, USA), insulin, hEGF, and hydrocortisone. The BJ-5ta cells (human dermal fibroblasts) were cultured in a DMEM-M199 4:1 medium mixture, supplemented with 10% FBS and hygromycin B (0.01 mg/mL). The cells were maintained under standard conditions with an atmosphere containing 5% CO2 at 37 °C. Cell viability, estimated by trypan blue exclusion, was consistently greater than 95% before each experiment.
as §2

The test system of the next assay is HeLa. Nature of the assay: MTT assay, HeLa. Type of assay: cell-based, human. The settings on record: cervical adenocarcinoma, 48 h incubation. Here is the method: as §1, §2
A further assay has as its system PATU. Nature of the assay: MTT assay, PATU 8902. The settings on record: pancreas adenocarcinoma, 48 h incubation. Type of assay: cell-based, human. Here is the method: as §1, §2
A further assay relates to Bj-5ta. The assay can be described thus: MTT assay, BJ-5ta non-cancerous fibroblasts. Format: cell-based, human. The settings on record: non-cancerous dermal fibroblasts, 48 h incubation. The protocol:
as §3, §2

The next assay relates to A549. Nature of the assay: MTT assay, A549. The settings on record: lung adenocarcinoma, 48 h incubation. Format: cell-based, human. The protocol: as §1, §2
The test system of the next assay is A2780. The assay can be described thus: MTT assay, A2780. Type of assay: cell-based, human. To be noted: ovarian adenocarcinoma, 48 h incubation. The protocol: as §1, §2
A further assay concerns A2058. The assay can be described thus: MTT assay, A2058. Format: cell-based. The settings on record: human melanoma, 48 h incubation. The protocol: as §1, §2
The subject of the next assay is Hep G2. The assay can be described thus: MTT assay, Hep G2. Format: cell-based, human. The settings on record: hepatocellular carcinoma, 48 h incubation. The protocol:
as §1, §2

SMILES strings stand for the structures. Counter-ions that a name gives are not always drawn.

Regarding `O=C(COc1ccc(/C=C2\SC(=O)N(Cc3c4ccccc4nc4ccccc34)C2=O)cc1)Nc1ccccc1` [7a·2HCl, 2-(4-{[(5Z)-3-[(Acridin-9-yl)methyl]-2,4-dioxo-1,3-thiazolidin-5-ylidene]methyl}phenoxy)-N-phenylacetamide dihydrochloride], the IC50 with HCT116 was 13.1 ± 2.3 µM; with MCF-10A, 17.6 ± 4.3 µM; in the assay on HeLa, 17.7 ± 4.04 µM; with PATU, over 50 µM; in the assay with Bj-5ta, 29.9 ± 7.2 µM; in the assay on A549, 17 ± 1.35 µM. The IC50 with A2780, in the assay with A2058 and in the assay on Hep G2 was over 50 µM in each case.

`COc1cc(NC(=O)COc2ccc(/C=C3\SC(=O)N(Cc4c5ccccc5nc5ccccc45)C3=O)cc2)cc(OC)c1` [7b·2HCl, 2-(4-{[(5Z)-3-[(Acridin-9-yl)methyl]-2,4-dioxo-1,3-thiazolidin-5-ylidene]methyl}phenoxy)-N-(3,5-dimethoxyphenyl)acetamide dihydrochloride]: the IC50 in the assay with HCT116 was 17.4 ± 1.74 µM; with MCF-10A it was 11.3 ± 2.05 µM; in the assay with HeLa it was 6.11 ± 1.2 µM; in the assay on PATU, over 50 µM; in the assay with Bj-5ta it was 34.5 ± 5.5 µM; with A549 it was 21.9 ± 3.35 µM. Besides, the half-inhibitory concentration (IC50) in the assay with A2780, in the assay on A2058 and in the assay with Hep G2 was over 50 µM in each case.

With `COc1cc(/C=C2\SC(=O)N(Cc3cccc4cc5ccccc5nc34)C2=O)ccc1OCC(=O)Nc1ccc([N+](=O)[O-])cc1` [13d·HCl, 2-(4-{[(5Z)-3-[(Acridin-4-yl)methyl]-2,4-dioxo-1,3-thiazolidin-5-ylidene]methyl}-2-methoxyphenoxy)-N-(4-nitrophenyl)acetamide hydrochloride], the IC50 in the assay on HCT116, in the assay with HeLa, in the assay with PATU, in the assay on Bj-5ta, with A549 and in the assay on A2058 was over 50 µM each time. This compound returned an IC50 with Hep G2 of over 50 µM.

For `COc1cc(/C=C2\SC(=O)N(Cc3cccc4cc5ccccc5nc34)C2=O)ccc1OCC(=O)Nc1ccccc1C(F)(F)F` [13e·HCl, 2-(4-{[(5Z)-3-[(Acridin-4-yl)methyl]-2,4-dioxo-1,3-thiazolidin-5-ylidene]methyl}-2-methoxyphenoxy)-N-[2-(trifluoromethyl)phenyl]acetamide hydrochloride], the IC50 in the assay with HCT116 was 14.5 ± 3.4 µM; in the assay on HeLa it was 13.7 ± 4.5 µM; in the assay with PATU it was 39.8 ± 7.1 µM; with Bj-5ta it was over 50 µM; with A549 it was 42.8 ± 5.4 µM; in the assay on A2058, over 50 µM. Also, the IC50 with Hep G2 is over 50 µM.

With `COc1cc(/C=C2\SC(=O)N(Cc3cccc4cc5ccccc5nc34)C2=O)ccc1OCC(=O)Nc1cccc(C(F)(F)F)c1` [13f·HCl, 2-(4-{[(5Z)-3-[(Acridin-4-yl)methyl]-2,4-dioxo-1,3-thiazolidin-5-ylidene]methyl}-2-methoxyphenoxy)-N-[3-(trifluoromethyl)phenyl]acetamide hydrochloride], the IC50 with HCT116 was 14.3 ± 3.2 µM; in the assay with HeLa it was 12.3 ± 4.9 µM; with PATU, 43.7 ± 5.8 µM; in the assay on Bj-5ta, over 50 µM; in the assay on A549 it was 38.2 ± 7.35 µM; in the assay on A2058, over 50 µM. The compound also came in with an IC50 in the assay with Hep G2 of over 50 µM.

Turning to `COc1cc(/C=C2\SC(=O)N(Cc3cccc4cc5ccccc5nc34)C2=O)ccc1OCC(=O)Nc1cc(C(F)(F)F)cc(C(F)(F)F)c1` [13g·HCl, 2-(4-{[(5Z)-3-[(Acridin-4-yl)methyl]-2,4-dioxo-1,3-thiazolidin-5-ylidene]methyl}-2-methoxyphenoxy)-N-[3,5-bis(trifluoromethyl)phenyl]acetamide hydrochloride], the IC50 is over 50 µM in the assay with HCT116; 34.7 ± 6.4 µM with HeLa; over 50 µM in the assay on PATU; over 50 µM in the assay with Bj-5ta; over 50 µM with A549; over 50 µM in the assay on A2058. The IC50 with Hep G2 was over 50 µM.

Usually IC50 stands for the concentration that gives 50% inhibition. Low readings indicate higher potency, high ones lower potency.
